Source: patent US12594293B2, “Use of 6-thio-dG to treat therapy-resistant telomerasepositive pediatric brain tumors” (The Board of Regents of The University of Texas System, priority 2018, dated 2026)

How the values were obtained:
[1] = tested on: ATM and ATR signaling pathways in HFF cells; assay: Western blot of ATR-T1989 and ATM-S1981 phosphorylation; assay type: cell-based, human; conditions: 3 μM, day 1 to 3
Procedure: (§1) Western blot. Western blot was performed as described previously (22). Antibodies used were against ATMS1981P (R & D Systems); ATM (SIGMA); ATR-T1989P (GeneTex); and ATR, CHK1-S345P, CHK1, CHK2-T68P, CHK2, Cleaved Caspase-3, and β-actin (Cell Signaling). Bands were visualized using ECL with Azurec500 imaging system (Azure Biosystems). Band intensities were quantified using ImageJ software (Ver. 1.49u, NIH, USA).

[2] = tested on: ATM and ATR signaling pathways in HFF+hTERT cells; assay: as above; assay type: cell-based, human; conditions: 3 μM, day 1 to 3
Procedure: as §1

[3] = tested on: HFF cells; assay: Immunofluorescence and telomere FISH (TIF) assay; assay type: cell-based, human
Procedure: (§2) Immunofluorescence and telomere FISH assay. Cells were fixed with 4% paraformaldehyde (PFA) for 15 minutes. Cells were then washed, permeabilized with 0.5% Triton-X-100 in PBS, blocked with 5% donkey serum and 0.3% Triton X-100 in TBS and incubated with primary antibodies against γH2A.X (1:500, rabbit), or cleaved caspase-3 (1:400, rabbit) (Cell Signaling); and/or TRF2 (1:200) (Mouse; NOVUS), as applicable, for overnight followed by TBST wash (×3) next day. Corresponding secondary antibodies were added (Alexa-Fluor 488- or 594-conjugated donkey anti-rabbit, or anti-mouse (1:500) (Jackson ImmunoResearch) for 1 hour and washed with TBS (×3) before mounting. For telomere-FISH, fixed and permeabilized cells were dehydrated with a graded ethanol concentration series, air-dried and covered with hybridization solution (70% formamide, 0.5% Blocking Reagent (Roche Diagnostics) diluted in 100 mM maleic acid and 150 mM sodium chloride, and 10 mM Tris (pH 7.5)) with 300 ng/mL PNA(CCCTAA)3-Cy3 (SEQ ID NO: 1) (Biosynthesis, USA), and denatured for 6 minutes at 84° C. followed by hybridization for at least two hours at room temperature. Cells were washed three times with 70% formamide and 10 mM Tris (pH 7.5) and three times with TBS. Finally, they were embedded with mounting media with DAPI (Vector Laboratories H1200).

[4] = tested on: MB004 cells; assay: Immunofluorescence and telomere FISH (TIF) assay; assay type: cell-based, human; conditions: 3 μM 2 days, then 3 days continuous or discontinuous treatment
Procedure: as §2

[5] = tested on: HFF+hTERT cells; assay: Immunofluorescence and telomere FISH (TIF) assay; assay type: cell-based, human
Procedure: as §2

[6] = tested on: telomerase-positive cells including brain tumor cells; assay: Cell growth assay, panel of telomerase-positive cells; assay type: cell-based, human
Procedure: (§3) Cell growth and sphere formation assay. After dissociating primary neurospheres by TrypLE express (Gibco), single cells were seeded in respective growth media in 6-well plates and were incubated for one week at varying concentrations (0.5 to 10 μM) of 6-thio-dG or DMSO. Fresh culture media were added every three days. Viable cell numbers were determined by trypan blue exclusion method. For sphere formation assay, MB004 single cells were seeded in limited dilution (10 cells/well in 96-well plate) and treated with DMSO or 6-thio-dG. Sphere formation was monitored by microscopy.

[7] = tested on: MB004 cells; assay: Sphere formation assay; assay type: cell-based, human; conditions: 3 μM, day 7
Procedure: as §3

[8] = tested on: HFF cells; assay: Senescence-associated β-galactosidase assay; assay type: cell-based, human; conditions: 3 μM for 23 days
Text: (§4) Senescence assay. Senescence-associated β-galactosidase was detected as previously described (2). Cells were observed under the microscope until the development of the blue color and the reaction was terminated. Images were captured; stained and unstained cells were counted from multiple fields to quantitate the percent senescent cells.

[9] = tested on: HFF+hTERT cells; assay: Senescence-associated β-galactosidase assay; assay type: cell-based, human; conditions: 3 μM for 23 days
Text: as §4

[10] = tested on: CCHMC-DIPG-1 cells; assay: Apoptosis, cleaved caspase-3; assay type: cell-based, human; conditions: 3 μM for 4 or 7 days; data not shown
Procedure: as §2, with “Finally, they were embedded with mounting media with DAPI (Vector Laboratories H1200).” left out
(§5) Western blot. […] Band intensities were quantified using ImageJ software (Ver. 1.49u, NIH, USA).

[11] = tested on: MB004 cells; assay: Apoptosis, cleaved caspase-3; assay type: cell-based, human; conditions: 3 μM for 4 or 7 days; data not shown
Procedure: as §2, with “Finally, they were embedded with mounting media with DAPI (Vector Laboratories H1200).” left out
as §5

[12] = cited from earlier work
[13] = tested on: SU-DIPG-VI; assay: Cell growth assay (viable cell count, trypan blue exclusion); assay type: cell-based; conditions: Homo sapiens, 168 h, 6-thio-dG treatment for 7 days
Procedure: as §3

[14] = tested on: HeLa; assay: as above; assay type: cell-based; conditions: Homo sapiens, 168 h, 6-thio-dG treatment for 7 days
Procedure: as §3

[15] = tested on: CCHMC-DIPG-1; assay: as above; assay type: cell-based; conditions: Homo sapiens, 168 h, 6-thio-dG treatment for 7 days
Procedure: as §3

[16] = tested on: R0315-GBM; assay: as above; assay type: cell-based; conditions: Homo sapiens, 168 h, 6-thio-dG treatment for 7 days
Procedure: as §3

[17] = tested on: HFF + hTERT; assay: as above; assay type: cell-based, human; conditions: Homo sapiens, 168 h; 6-thio-dG treatment for 7 days; HFF + hTERT
[18] = tested on: HeLa cells; assay: Cell cycle analysis (PI flow cytometry); assay type: cell-based, human
Procedure: (§6) Cell cycle analysis. […] Cells were then washed and stained with propidium iodide (PI) solution containing 25 μg/mL PI (Sigma), and 100 μg/mL Ribonuclease-A (Sigma) for 30 minutes in the dark. Flow cytometry was performed on BD FACS Canto II and cells were analyzed using FlowJo v.10 (FlowJo, USA) software.

[19] = tested on: MB004 cells; assay: Cell cycle analysis (PI flow cytometry); assay type: cell-based, human; conditions: 3 μM for 3 days
Procedure: as §6

Nc1nc2c(ncn2[C@H]2C[C@H](O)[C@@H](CO)O2)c(=S)[nH]1 [6-thio-dG, 6-thio-2′-deoxyguanosine]
ATR / ATM pathway activation [1]: activation of the ATR pathway
ATR-T1989 and ATM-S1981 phosphorylation [2]: Both ATM and ATR signaling pathways were engaged
TIF formation (cells with TIFs) ([3]; 3 μM, after 2 or 5 days treatment): less than 3%
TIFs after drug withdrawal ([3]; 3 days after drug withdrawal): completely disappeared
TIF formation [4]: sustained TIF formation
cells TIF-positive ([5]; 3 μM 2 days, then 3 days after drug withdrawal): ~31%
cells TIF-positive ([5]; 3 μM, 5 days continuous treatment): ~34%
number of cells with TIFs ([5]; 3 μM, after two days): ~25%
number of TIFs per cell and number of cells with TIFs ([5]; 3 μM, from day 1 to day 3): markedly increased
cell growth ([6]; 0.5 to 10 μM every three days for one week): inhibited cell growth in a dose-dependent manner
IC50 ([6]; Homo sapiens, all telomerase-positive cells including brain tumor cells (Table S2)): 140 to 1450 nM
sphere formation ability [7]: total abolition of sphere formation ability
cells SA-β-gal-positive [8]: 7%
cells with senescence phenotype (SA-β-gal-positive) [9]: 30%
cleaved caspase-3 signal (apoptosis) [10]: increase in cleaved caspase-3 signal
cleaved caspase-3 signal (apoptosis) [11]: increase in cleaved caspase-3 signal
animal deaths or weight loss ([12]; mice treated with 6-thio-dG, Mender et al.): no animal deaths or weight loss
toxic effects on hematologic counts, liver and kidney functions ([12]; mouse, in vivo): did not cause any toxic effects
IC50 [13]: 772 nM
IC50 [14]: 143 nM
IC50 [15]: 655 nM
IC50 [16]: 1250 nM
IC50 [17]: 179 nM
effect on cell cycle progression after drug removal ([18]; 3 μM 3 days, then drug removed): persisted several days after drug withdrawal
cell cycle progression ([18]; 3 μM, three days): caused G2/M arrest
cell cycle populations ([18]; continuous treatment, 3 μM): sharp increase in G2/M, >4n and sub-G1 cell populations
cell cycle populations [19]: increase in sub-G1 and G2/M cell populations
